Experimental data taken from patent US8168592B2 (Amgen Inc., priority 2005, dated 2012).
Read-outs that look alike come from different tables or passages of the source. Square brackets hold non-standard residues; d marks the D form. Ends that are not written are not given here. Peptide text beside a SMILES is read from it. Oic = O=C(O)[C@@H]1C[C@@H]2CCCC[C@@H]2N1; 1Nal = N[C@@H](Cc1cccc2ccccc12)C(=O)O; 2Nal = N[C@@H](Cc1ccc2ccccc2c1)C(=O)O; hArg = N=C(N)NCCCC[C@H](N)C(=O)O; Cit = NC(=O)NCCC[C@H](N)C(=O)O

Target: T1, CGRP1 receptor (Homo sapiens, UniProt O60894+Q16602)
T1 construct: SK-N-MC cells express CRLR and RAMP1, which form CGRP1 receptor; endogenous in cells; host or cells: SK-N-MC human neuroblastoma cells
T1 sequence (Q16602 23-461): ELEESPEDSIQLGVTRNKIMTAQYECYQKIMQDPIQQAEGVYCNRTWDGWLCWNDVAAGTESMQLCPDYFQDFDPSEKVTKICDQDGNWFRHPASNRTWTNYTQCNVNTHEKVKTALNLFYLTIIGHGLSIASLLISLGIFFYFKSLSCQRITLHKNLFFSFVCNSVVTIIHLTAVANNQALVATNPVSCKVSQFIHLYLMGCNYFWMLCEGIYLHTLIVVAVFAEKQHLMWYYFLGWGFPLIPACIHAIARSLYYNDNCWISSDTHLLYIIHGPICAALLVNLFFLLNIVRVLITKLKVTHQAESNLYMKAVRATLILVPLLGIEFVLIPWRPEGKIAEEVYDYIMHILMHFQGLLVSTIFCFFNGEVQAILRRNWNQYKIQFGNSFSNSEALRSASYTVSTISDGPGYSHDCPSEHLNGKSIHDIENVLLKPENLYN
T1 sequence (O60894 27-148): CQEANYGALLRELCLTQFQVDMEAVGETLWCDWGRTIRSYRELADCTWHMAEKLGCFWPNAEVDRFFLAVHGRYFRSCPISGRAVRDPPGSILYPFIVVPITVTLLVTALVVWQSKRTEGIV
Assay: in vitro CGRP1 receptor mediated cAMP assay in SK-N-MC cells
Format: cell-based
Method: The in vitro cAMP assay employed a human neuroblastoma-derived cell line (SK-N-MC). SK-N-MC cells express CRLR and RAMP1, which form CGRP1 receptor. CGRP1 receptor is a G-protein coupled receptor linked to the stimulatory G-protein, Gs. […] Briefly, two days before the assay, the cells were plated in 96-well plates in growth medium. On the day of the assay cells were rinsed with PBS followed by the addition of 60 μl of plasma free medium for 15 minutes at room temperature. […] The medium was then removed and the cells were lysed with 100 μl lysis buffer for 30 minutes at 37° C. for 30 minutes. Using a Tropix ELISA kit (Applied Biosystems, Foster City, Calif.), a cAMP-AP conjugate was diluted (1:100) and added (30 μl) to each well of a 96-well ELISA plate. An aliquot of the lysis buffer from the cell plate was then added to the ELISA plate followed by an aliquot of the cAMP antibody. This mixture was incubated for 1 hour at room temperature with gentle shaking. The ELISA plate was then washed 6× with wash buffer followed by the additions of a substrate enhancer. This mixture was incubated for 30 minutes at room temperature and then read on a MicroBeta Jet or EnVision plate reader. The results were analyzed using Prism (GraphPad).

[1] = Table 2C, unconjugated peptide, read-out: Peptide IC50

Compound: CC[C@H](C)[C@H](NC(=O)[C@H](CCCNC(N)=O)NC(=O)[C@H](Cc1c[nH]cn1)NC(=O)[C@@H](NC(=O)[C@@H](NC(=O)[C@H](Cc1c[nH]c2ccccc12)NC(C)=O)C(C)C)[C@@H](C)O)C(=O)N[C@@H](CC(C)C)C(=O)N[C@@H](C)C(=O)NCC(=O)N[C@@H](CC(C)C)C(=O)N[C@@H](CC(C)C)C(=O)N1CCC[C@H]1C(=O)N[C@@H](CCCNC(=N)N)C(=O)N[C@@H](CO)C(=O)NCC(=O)NCC(=O)N[C@H](C(=O)N[C@H](C(=O)N[C@@H](CCCNC(=N)N)C(=O)N[C@@H](CCCCN)C(=O)N[C@@H](CC(N)=O)C(=O)N[C@@H](Cc1ccccc1)C(=O)N[C@H](C(=O)N1CCC[C@H]1C(=O)N[C@H](C(=O)N[C@@H](CC(=O)O)C(=O)N[C@H](C(=O)NCC(=O)N1CCC[C@H]1C(=O)N[C@@H](Cc1ccccc1)C(=O)N[C@@H](C)C(=O)N[C@@H](Cc1ccccc1)C(N)=O)C(C)C)[C@@H](C)O)C(C)C)C(C)C)C(C)C [compound 867] (Ac-WVTH[Cit]ILAGLLPRSGGVVRKNFVPTDVGPFAF-NH2)
- IC50 [1]: 2.31 nM

Compound: 766 (Ac-WVTHRLAGLLSRSGGVVRC(20 kDa MeO‑PEG)NFVPTDVGPFAF-NH2) [compound 766]
- IC50 (Table 2D, read-out: IC50): 4.09 nM

Compound: CC(=O)N[C@@H](Cc1c[nH]c2ccccc12)C(=O)N[C@H](C(=O)N[C@H](C(=O)N[C@@H](Cc1c[nH]cn1)C(=O)N[C@@H](CCCNC(N)=O)C(=O)N[C@@H](CC(C)C)C(=O)N[C@@H](C)C(=O)NCC(=O)N[C@@H](CC(C)C)C(=O)N[C@@H](CC(C)C)C(=O)N[C@@H](CO)C(=O)N[C@@H](CCCNC(N)=O)C(=O)N[C@@H](CO)C(=O)NCC(=O)NCC(=O)N[C@H](C(=O)N[C@H](C(=O)N[C@@H](CCCCNC(=N)N)C(=O)N[C@@H](CCCCN)C(=O)N[C@@H](CC(N)=O)C(=O)N[C@@H](Cc1ccccc1)C(=O)N[C@H](C(=O)N1[C@H](C(=O)N[C@H](C(=O)N[C@@H](CC(=O)O)C(=O)N[C@H](C(=O)NCC(=O)N2CCC[C@H]2C(=O)N[C@@H](Cc2cccc3ccccc23)C(=O)N[C@@H](C)C(=O)N[C@@H](Cc2ccc3ccccc3c2)C(N)=O)C(C)C)[C@@H](C)O)C[C@@H]2CCCC[C@@H]21)C(C)C)C(C)C)C(C)C)[C@@H](C)O)C(C)C [compound 133] (Ac-WVTH[Cit]LAGLLS[Cit]SGGVV[hArg]KNFV[Oic]TDVGP[1Nal]A[2Nal]-NH2)
- IC50 (Table 2A, read-out: IC50): 2.73 nM

Compound: CC(=O)N[C@@H](CCCNC(N)=O)C(=O)N[C@@H](CC(C)C)C(=O)N[C@@H](C)C(=O)NCC(=O)N[C@@H](CC(C)C)C(=O)N[C@@H](CC(C)C)C(=O)N[C@@H](CO)C(=O)N[C@@H](CCCNC(N)=O)C(=O)N[C@@H](CO)C(=O)NCC(=O)NCC(=O)N[C@H](C(=O)N[C@H](C(=O)N[C@@H](CCCCNC(=N)N)C(=O)N[C@@H](CCCCN)C(=O)N[C@@H](CC(N)=O)C(=O)N[C@@H](Cc1ccccc1)C(=O)N[C@H](C(=O)N1CCC[C@H]1C(=O)N[C@H](C(=O)N[C@@H](CC(=O)O)C(=O)N[C@H](C(=O)NCC(=O)N1CCC[C@H]1C(=O)N[C@@H](Cc1ccccc1)C(=O)N[C@@H](C)C(=O)N[C@@H](Cc1ccccc1)C(N)=O)C(C)C)[C@@H](C)O)C(C)C)C(C)C)C(C)C [compound 657] (Ac-[Cit]LAGLLS[Cit]SGGVV[hArg]KNFVPTDVGPFAF-NH2)
- IC50 (Table 2A, read-out: IC50): 13 nM

Compound: Ac-WVTHRLAGLLSQSGGVVRCNFVPTDVGPFAF-NH2 [compound 35]
- IC50 (Table 7, R11 and/or R18 stability analogs, with or without 20 kDa PEG, read-out: IC50): 0.37 nM

Compound: CC(=O)N[C@@H](Cc1c[nH]c2ccccc12)C(=O)N[C@H](C(=O)N[C@H](C(=O)N[C@@H](Cc1c[nH]cn1)C(=O)N[C@@H](CCCNC(N)=O)C(=O)N[C@@H](CC(C)C)C(=O)N[C@@H](C)C(=O)NCC(=O)N[C@@H](CC(C)C)C(=O)N[C@@H](CC(C)C)C(=O)N[C@@H](CO)C(=O)N[C@@H](CCCNC(=N)N)C(=O)N1CCC[C@H]1C(=O)NCC(=O)NCC(=O)N[C@H](C(=O)N[C@H](C(=O)N[C@@H](CCCNC(=N)N)C(=O)N[C@@H](CCCCN)C(=O)N[C@@H](CC(N)=O)C(=O)N[C@@H](Cc1ccccc1)C(=O)N[C@H](C(=O)N1CCC[C@H]1C(=O)N[C@H](C(=O)N[C@@H](CC(=O)O)C(=O)N[C@H](C(=O)NCC(=O)N1CCC[C@H]1C(=O)N[C@@H](Cc1ccccc1)C(=O)N[C@@H](C)C(=O)N[C@@H](Cc1ccccc1)C(N)=O)C(C)C)[C@@H](C)O)C(C)C)C(C)C)C(C)C)[C@@H](C)O)C(C)C [compound 868] (Ac-WVTH[Cit]LAGLLSRPGGVVRKNFVPTDVGPFAF-NH2)
- IC50 [1]: 3 nM

Compound: CC(=O)N[C@@H](Cc1c[nH]c2ccccc12)C(=O)N[C@H](C(=O)N[C@H](C(=O)N[C@@H](Cc1c[nH]cn1)C(=O)N[C@@H](CCCNC(N)=O)C(=O)N[C@@H](CC(C)C)C(=O)N[C@@H](C)C(=O)NCC(=O)N[C@@H](CC(C)C)C(=O)N[C@@H](CC(C)C)C(=O)N[C@@H](CO)C(=O)N[C@@H](CCCNC(N)=O)C(=O)N[C@@H](CO)C(=O)NCC(=O)NCC(=O)N[C@H](C(=O)N[C@H](C(=O)N[C@@H](CCCCNC(=N)N)C(=O)N[C@@H](CCCCN)C(=O)N[C@@H](CC(N)=O)C(=O)N[C@@H](Cc1ccc2ccccc2c1)C(=O)N[C@H](C(=O)N1CCC[C@H]1C(=O)N[C@H](C(=O)N[C@@H](CC(=O)O)C(=O)N[C@H](C(=O)NCC(=O)N1[C@H](C(=O)N[C@@H](Cc2ccccc2)C(=O)N[C@@H](C)C(=O)N[C@@H](Cc2ccc3ccccc3c2)C(N)=O)C[C@@H]2CCCC[C@@H]21)C(C)C)[C@@H](C)O)C(C)C)C(C)C)C(C)C)[C@@H](C)O)C(C)C [compound 138] (Ac-WVTH[Cit]LAGLLS[Cit]SGGVV[hArg]KN[2Nal]VPTDVG[Oic]FA[2Nal]-NH2)
- IC50 (Table 2A, read-out: IC50): 3.45 nM

Compound: CC(=O)N[C@@H](Cc1c[nH]c2ccccc12)C(=O)N[C@H](C(=O)N[C@H](C(=O)N[C@@H](Cc1c[nH]cn1)C(=O)N[C@@H](CCCNC(=N)N)C(=O)N[C@@H](CC(C)C)C(=O)N[C@@H](C)C(=O)NCC(=O)N[C@@H](CC(C)C)C(=O)N[C@@H](CC(C)C)C(=O)N[C@@H](CO)C(=O)N[C@H](CCCNC(=N)N)C(=O)N[C@@H](CO)C(=O)NCC(=O)NCC(=O)N[C@H](C(=O)N[C@H](C(=O)N[C@@H](CCCNC(=N)N)C(=O)N[C@@H](CS)C(=O)N[C@@H](CC(N)=O)C(=O)N[C@@H](Cc1ccccc1)C(=O)N[C@H](C(=O)N1CCC[C@H]1C(=O)N[C@H](C(=O)N[C@@H](CC(=O)O)C(=O)N[C@H](C(=O)NCC(=O)N1CCC[C@H]1C(=O)N[C@@H](Cc1ccccc1)C(=O)N[C@@H](C)C(=O)N[C@@H](Cc1ccccc1)C(N)=O)C(C)C)[C@@H](C)O)C(C)C)C(C)C)C(C)C)[C@@H](C)O)C(C)C [compound 776] (Ac-WVTHRLAGLLS[dR]SGGVVRCNFVPTDVGPFAF-NH2)
- IC50 (Table 2D, read-out: IC50): 0.59 nM

Compound: SEQ ID NO:2 (CGGGGGGGVTHRLAGLLSRSGGVVKNNFVPTNVGSKAF-NH2)
- antagonist activity in cAMP assay, in words: deleterious to potency

Compound: SEQ ID NO:29 (WVTHRLAGLLSXSGGVVRKNFVPTDVGPFAF; CGRP peptide; MOD_RES (1)..(1): …ON; MISC_FEATURE (12)..(12): xaa=citrulline; MOD_RES (31)..(31): AMIDATION)
- antagonist activity in cAMP assay, in words: well tolerated
